As a reminder, the IC50 is the point on the concentration scale where inhibition reaches its midpoint. As a reminder, the EC50 is the concentration needed to bring the measured effect to its halfway point.

Activity calls are given as the source filed them. The calls are words filed in the database; no cut-off is given here.

Series [1] relates to A2780. In words: Antiproliferative activity against human A2780 cells assessed as cell growth inhibition. The class given is functional, cell-based.
The target of series [2] is Nicotinamide phosphoribosyltransferase (Homo sapiens, UniProt P43490). In words: Inhibition of NAMPT (unknown origin).
A short description of series [3]: Cytotoxicity activity against HUVEC cells assessed as cell growth inhibition. Particulars: human. It counts as toxicity, cell-based.
Series [4] concerns the target von Hippel-Lindau disease tumor suppressor/Nicotinamide phosphoribosyltransferase (Homo sapiens, UniProt P40337+P43490). In words: (§1) PROTAC activity at VHL/NAMPT in human A2780 cells assessed as protein degradation measured after 24 hrs by Western blot analysis. The class given is cell-based. (In western blotting, separated proteins are transferred to a membrane and probed.)

For series [5], the target named is T1, von Hippel-Lindau disease tumor suppressor/Nicotinamide phosphoribosyltransferase (Homo sapiens) (UniProt P43490+P40337). The description is as §1. The class given is cell-based.
The subject of series [6] is A2780. In words: Induction of apoptosis in human A2780 cells assessed as total apoptotic cells at 1.6 nM incubated for 48 hrs by flow cytometry analysis (reference value: 9.27 %). It counts as functional. In general terms: In flow cytometry, cells or beads pass a laser one at a time.
Series [7] concerns A2780. As to the kind of experiment: Induction of apoptosis in human A2780 cells assessed as total apoptotic cells at 1000 nM incubated for 48 hrs by flow cytometry analysis (reference value: 9.27 %). It counts as functional.
For series [8], the system named is A2780. In words: Induction of apoptosis in human A2780 cells assessed as total apoptotic cells at 40 nM incubated for 48 hrs by flow cytometry analysis (reference value: 9.27 %). It counts as functional.
Series [9] deals with T1, von Hippel-Lindau disease tumor suppressor/Nicotinamide phosphoribosyltransferase (Homo sapiens). In words: PROTAC activity at VHL/NAMPT in human A2780 cells assessed as protein degradation at 200 nM by Western blot analysis. The class given is cell-based. Particulars: TDE = time-dependent effect.
Series [10] has the same target. In words: PROTAC activity at VHL/NAMPT in human A2780 cells assessed as protein degradation at 200 nM preincubated with MG132 followed by compound addition and measured after 24 hrs by Western blot analysis. It counts as cell-based.
For series [11] the target is unchanged. In words: PROTAC activity at VHL/NAMPT in human A2780 cells assessed as protein degradation at 200 nM measured after 24 hrs by Western blot analysis relative to control. It counts as cell-based.
Series [12] has the same target. As to the kind of experiment: PROTAC activity at VHL/NAMPT in human A2780 cells assessed as protein degradation at 200 nM preincubated with NAMPT inhibitor, FK866 followed by compound addition and measured after 24 hrs by Western blot analysis. It counts as cell-based.
For series [13] the target is unchanged. As to the kind of experiment: PROTAC activity at VHL/NAMPT in human A2780 cells assessed as protein degradation at 200 nM preincubated with carfilzomib followed by compound addition and measured after 24 hrs by Western blot analysis. It counts as cell-based.
Series [14] has the same target. In words: PROTAC activity at VHL/NAMPT in human A2780 cells assessed as protein degradation at 200 nM preincubated with VHL-Boc followed by compound addition and measured after 24 hrs by Western blot analysis. The class given is cell-based.
For series [15] the target is unchanged. As to the kind of experiment: PROTAC activity at VHL/NAMPT in human A2780 cells assessed as protein degradation at 200 nM preincubated with MLN4924 followed by compound addition and measured after 24 hrs by Western blot analysis. The class given is cell-based.
Series [16] shares this target. In words: PROTAC activity at VHL/NAMPT in human A2780 cells assessed as protein degradation at 200 nM preincubated with VHL-Ac followed by compound addition and measured after 24 hrs by Western blot analysis. The class given is cell-based.

Nicotinamide phosphoribosyltransferase, sequence (P43490 whole entry): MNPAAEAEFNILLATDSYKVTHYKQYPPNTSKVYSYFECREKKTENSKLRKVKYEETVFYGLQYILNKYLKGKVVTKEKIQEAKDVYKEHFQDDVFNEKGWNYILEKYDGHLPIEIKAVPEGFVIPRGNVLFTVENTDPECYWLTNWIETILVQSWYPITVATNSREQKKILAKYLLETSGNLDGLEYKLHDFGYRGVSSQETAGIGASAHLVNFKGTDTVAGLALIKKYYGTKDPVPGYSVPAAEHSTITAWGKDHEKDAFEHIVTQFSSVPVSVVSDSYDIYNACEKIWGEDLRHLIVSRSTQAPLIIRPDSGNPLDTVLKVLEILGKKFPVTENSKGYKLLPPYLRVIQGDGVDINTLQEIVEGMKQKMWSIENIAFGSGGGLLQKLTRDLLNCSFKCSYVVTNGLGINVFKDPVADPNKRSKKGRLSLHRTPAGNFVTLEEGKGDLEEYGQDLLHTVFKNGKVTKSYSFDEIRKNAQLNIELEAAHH
von Hippel-Lindau disease tumor suppressor/Nicotinamide phosphoribosyltransferase, sequence (P43490 whole entry): as above
von Hippel-Lindau disease tumor suppressor/Nicotinamide phosphoribosyltransferase, sequence (P40337 whole entry): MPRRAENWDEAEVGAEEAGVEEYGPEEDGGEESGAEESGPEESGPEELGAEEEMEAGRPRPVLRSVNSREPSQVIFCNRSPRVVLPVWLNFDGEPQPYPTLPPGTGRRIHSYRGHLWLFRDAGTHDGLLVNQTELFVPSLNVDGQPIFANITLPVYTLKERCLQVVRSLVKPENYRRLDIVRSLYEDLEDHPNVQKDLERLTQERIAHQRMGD
T1 sequence (P40337 whole entry, looked up): as the sequence (P40337 whole entry) above
T1 sequence (P43490 whole entry, looked up): as the sequence (P43490 whole entry) above

Take `Cc1ncsc1-c1ccc([C@H](C)NC(=O)[C@@H]2C[C@@H](O)CN2C(=O)[C@@H](NC(=O)CCCCCCCCCCNC(=O)c2ccc(C(=O)N3CCC(CCCCNC(=O)/C=C/c4cccnc4)CC3)cc2)C(C)(C)C)cc1`: the IC50 was 41.1 nM in series [1], 1.47 nM in [2] and 2.23 nM in series [3]. In addition, the EC50 in series [4] was determined as 111 nM.

Consider `Cc1ncsc1-c1ccc([C@H](C)NC(=O)[C@@H]2C[C@@H](O)CN2C(=O)[C@@H](NC(=O)CCCCCCNC(=O)c2ccc(C(=O)N3CCC(CCCCNC(=O)/C=C/c4cccnc4)CC3)cc2)C(C)(C)C)cc1`, for which the results for the IC50 in [1], in series [2] and in series [3] were 5.9 nM, 1.59 nM and 0.07 nM, respectively. Also, the half-maximal effective concentration (EC50) in series [4] came to 56 nM. Further, the Activity entry in series [5] was “Dose-Dependent Effect”.

Turning to `Cc1ncsc1-c1ccc([C@H](C)NC(=O)[C@@H]2C[C@@H](O)CN2C(=O)[C@@H](NC(=O)CCCCCCCCNC(=O)c2ccc(C(=O)N3CCC(CCCCNC(=O)/C=C/c4cccnc4)CC3)cc2)C(C)(C)C)cc1`, the IC50 in [1] came to 37.9 nM; in [2], 3.12 nM; in [3], 0.9 nM. Also, in series [4], the EC50 amounted to 54.4 nM. For the same compound, the Activity entry in [5] is “Dose-Dependent Effect”.

Turning to `Cc1ncsc1-c1ccc([C@H](C)NC(=O)[C@@H]2C[C@@H](O)CN2C(=O)[C@@H](NC(=O)CCCNC(=O)c2ccc(C(=O)N3CCC(CCCCNC(=O)/C=C/c4cccnc4)CC3)cc2)C(C)(C)C)cc1`, the half-inhibitory concentration (IC50) in [1] turned out to be 33.7 nM; in series [2], 1.53 nM; in [3], 1.05 nM.

Regarding `Cc1ncsc1-c1ccc([C@H](C)NC(=O)[C@@H]2C[C@@H](O)CN2C(=O)[C@@H](NC(=O)CCCCNC(=O)c2ccc(C(=O)N3CCC(CCCCNC(=O)/C=C/c4cccnc4)CC3)cc2)C(C)(C)C)cc1`, the IC50 came out at 3 nM in series [1], 2.67 nM in series [2] and 0.21 nM in series [3]. Also, the EC50 in [4] is 189 nM. The Activity entry in series [5] was “Dose-Dependent Effect”.

For the compound `Cc1ncsc1-c1ccc([C@H](C)NC(=O)[C@@H]2C[C@@H](O)CN2C(=O)[C@@H](NC(=O)COCCOCCOCCOCCNC(=O)c2ccc(CN3CCN(S(=O)(=O)c4ccc(NC(=S)NCc5cccnc5)cc4)CC3)cc2)C(C)(C)C)cc1`, the IC50 in series [1] is less than 4 nM.

Turning to `Cc1ncsc1-c1ccc([C@H](C)NC(=O)[C@@H]2C[C@@H](O)CN2C(=O)[C@@H](NC(=O)CCCCCNC(=O)c2ccc(C(=O)N3CCC(CCCCNC(=O)/C=C/c4cccnc4)CC3)cc2)C(C)(C)C)cc1`, the IC50 in [1] was 2.4 nM; in [2], 5.59 nM; in series [3], 0.45 nM. For the same compound, the half-maximal effective concentration (EC50) in [4] is 293 nM. The Activity result in [5] is “Dose-Dependent Effect”.

Regarding `O=C(/C=C/c1cccnc1)NCCCCC1CCN(C(=O)c2ccccc2)CC1` [DAPORINAD], the IC50 in [1] was less than 3 nM; in series [3], less than 0.001 nM. In addition, the Activity amounted to 10.22% in series [6], 26.84% in [7] and 16.3% in [8].

For the compound `Cc1ncsc1-c1ccc([C@H](C)NC(=O)[C@@H]2C[C@@H](O)CN2C(=O)[C@@H](NC(=O)CCCCCCCCCNC(=O)c2ccc(C(=O)N3CCC(CCCCNC(=O)/C=C/c4cccnc4)CC3)cc2)C(C)(C)C)cc1`, the IC50 in [1] was 69.2 nM; in [2], 7.3 nM; in series [3], 1.51 nM. Also, the EC50 in series [4] is greater than 500 nM.

`Cc1ncsc1-c1ccc([C@H](C)NC(=O)[C@@H]2C[C@@H](O)CN2C(=O)[C@@H](NC(=O)CCCCCCCNC(=O)c2ccc(C(=O)N3CCC(CCCCNC(=O)/C=C/c4cccnc4)CC3)cc2)C(C)(C)C)cc1`: the Activity entry in series [9] was “Tde”; in series [11], 78%; in series [6], 10.15%; in series [7], 20.81%; in series [8], 14.57%; in series [5], “Dose-Dependent Effect”. In addition, the outcome in series [10], in series [12], in [13], in series [14], in series [15] and in [16] was inactive. Besides, the IC50 came out at 30.6 nM in series [1], 2.14 nM in [2] and 0.3 nM in series [3]. Also, in series [4], the EC50 came out at 31.7 nM.

The values above are taken from ChEMBL document CHEMBL5365405, “Discovery of potent NAMPT-Targeting PROTACs using FK866 as the warhead” (Bioorg Med Chem Lett, 2023).
